Molecules are shown by their SMILES.

The target in one assay is T1, STAT6 (Homo sapiens, UniProt P42226).
T1 construct: These cells express endogenous STAT6; host or cells: HeLa LgBiT clone 4.14
T1 sequence (P42226 1-847): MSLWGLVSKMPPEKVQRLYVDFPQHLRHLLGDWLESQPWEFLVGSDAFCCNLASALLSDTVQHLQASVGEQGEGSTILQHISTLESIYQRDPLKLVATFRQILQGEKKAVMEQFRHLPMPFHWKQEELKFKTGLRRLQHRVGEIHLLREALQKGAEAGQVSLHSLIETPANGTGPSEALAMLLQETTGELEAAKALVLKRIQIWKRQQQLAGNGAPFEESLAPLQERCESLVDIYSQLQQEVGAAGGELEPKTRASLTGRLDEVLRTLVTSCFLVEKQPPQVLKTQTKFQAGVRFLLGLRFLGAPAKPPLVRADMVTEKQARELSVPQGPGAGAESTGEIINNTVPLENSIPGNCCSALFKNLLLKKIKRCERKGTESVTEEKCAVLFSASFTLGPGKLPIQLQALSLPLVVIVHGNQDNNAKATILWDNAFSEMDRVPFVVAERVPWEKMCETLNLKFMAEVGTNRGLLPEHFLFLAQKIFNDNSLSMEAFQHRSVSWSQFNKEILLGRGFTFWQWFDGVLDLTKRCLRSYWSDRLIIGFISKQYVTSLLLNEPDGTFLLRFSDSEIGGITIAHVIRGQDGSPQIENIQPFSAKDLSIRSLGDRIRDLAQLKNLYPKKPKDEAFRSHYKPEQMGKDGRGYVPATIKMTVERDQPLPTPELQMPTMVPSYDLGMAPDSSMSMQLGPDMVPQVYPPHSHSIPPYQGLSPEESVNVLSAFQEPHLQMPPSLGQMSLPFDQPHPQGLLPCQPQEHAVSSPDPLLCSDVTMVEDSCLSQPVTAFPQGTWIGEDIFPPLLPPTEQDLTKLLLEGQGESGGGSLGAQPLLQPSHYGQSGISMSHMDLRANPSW
Kind of assay: Stat6 Degrader Assay (HiBiT based, HeLa LgBiT clone 4.14). It is filed as cell-based. Conditions: HeLa LgBiT clone 4.14 HiBiT-STAT6, 4-24 h incubation; read-out: STAT6 degradation Emax. How it is done: This was a HiBit based assay. A HeLa cell line stably transfected with a small protein, LgBit (Large Bit) was obtained from Promega. These cells express endogenous STAT6. A small 11 amino acid gene sequence (HiBiT) was inserted in the STAT6 gene using CRISPR technology. Once STAT6 protein is expressed in the cells, the HiBiT sequence will bind the LgBit in the cells resulting in a functional NanoBiT protein, giving a luminescent tag to STAT6, see FIG. 2.
Single cell clones were prepared and the clone 4.14 was selected for the assay based on that clone showing high luminescence, high STAT6 phosphorylation upon stimulation with IL-4, and inhibition of luminescence when cells were treated with STAT6 siRNA.
HeLa LgBiT clone 4.14 cells were suspended in DMEM with 10% FCS, 1% Pen/Strep, Na-pyrovate and Hygromycin B, at a concentration of 1.25*105 cells pr mL. 5000 cells were added pr well of a 384 well plate and 20 nL of compound was added by Echo® liquid handler. NN6394A (terfenadine, a toxic compound) was added to control wells at 50 μM concentration to establish the assay window. In these wells the cells are dead which equals 100% degradation of STAT6.
After 4-24 h of incubation at 37° C. under 5% CO2/95% air, 5 μL substrate (Nano-GLO®) was added to the wells and the plates were centrifuged and incubated for 0.5 h.
The luminescence in the wells as a measure of non-degraded STAT6 was measured in a plate reader (BMG Pherastar FSX).
The dose-response curves for Examples 3u208, 3u246, 3u118, 3u119, 3u120, and 3u74 are shown in FIG. 1 (where percent degradation is plotted vs. test compound concentration in M on a log-scale).
As to `Cc1cc(C(=O)N2CCC(CN3CCC(Cc4ccc5c(c4)n(C)c(=O)n5C4CCC(=O)NC4=O)CC3)CC2)cc(F)c1C1CCN(Cc2cc3c(-n4ccc(N)cc4=O)ccnc3n2C)CC1` (centres unmarked) [Example 3u267, 3-(5-((1-((1-(4-(1-((4-(4-amino-2-oxopyridin-1 (2H)-yl)-1-methyl-1H-pyrrolo[2,3-b]pyridin-2-yl)methyl)piperidin-4-yl)-3-fluoro-5-methylbenzoyl)piperidin-4-yl)methyl)piperidin-4-yl)methyl)-3-methyl-2-oxo-2,3-dihydro-1H-benzo[d]imidazol-1-yl)piperidine-2,6-dione], the Emax was 50 to 60%.
For `CNc1ccn(-c2ccnc3c2cc(CN2CCC(c4c(F)cc(C(=O)N5CCC(CN6CCN(c7cc8c(cc7F)n(C7CCC(=O)NC7=O)c(=O)n8C)CC6)CC5)cc4F)CC2)n3C)c(=O)c1F` (centres unmarked) [Example 3u274, 3-(5-(4-((1-(3,5-difluoro-4-(1-((4-(3-fluoro-4-(methylamino)-2-oxopyridin-1 (2H)-yl)-1-methyl-1H-pyrrolo[2,3-b]pyridin-2-yl)methyl)piperidin-4-yl)benzoyl)piperidin-4-yl)methyl)piperazin-1-yl)-6-fluoro-3-methyl-2-oxo-2,3-dihydro-1H-benzo[d]imidazol-1-yl)piperidine-2,6-dione], the Emax was < 20%.

The same assay, now with this note: HeLa LgBiT clone 4.14 HiBiT-STAT6, 4-24 h incubation; values given for compounds with >80% Emax; geometric mean; read-out: STAT6 degradation DC50.
Consider `CNc1cc(=O)n(-c2ccnc3c2cc([C@H](C)N2CC=C(c4c(C)cc(C(=O)N5CCC(F)(CC6CCN(c7ccc8c(c7)C7(CC7)C(=O)N8C7CCC(=O)NC7=O)CC6)CC5)cc4F)CC2)n3C)cc1F` (stereo partly drawn) [Example 3u21, 3-(5′-(4-((4-fluoro-1-(3-fluoro-4-(1-((S)-1-(4-(5-fluoro-4-(methylamino)-2-oxopyridin-1 (2H)-yl)-1-methyl-1H-pyrrolo[2,3-b]pyridin-2-yl)ethyl)-1,2,3,6-tetrahydropyridin-4-yl)-5-methylbenzoyl)piperidin-4-yl)methyl)piperidin-1-yl)-2′-oxospiro[cyclopropane-1,3′-indolin]-1′-yl)-piperidine-2,6-dione], for which the DC50 turned out to be 0.4 nM.
On the same count and under the same terms, as for `CNc1ccn(-c2cccc3c2cc([C@H](C)N2CC=C(c4c(C)cc(C(=O)N5CCC(CN6CCN(Cc7cc8c(cc7F)n([C@H]7CCC(=O)NC7=O)c(=O)n8C7CC7)C[C@@H]6C)CC5)cc4F)CC2)n3C)c(=O)c1` (single isomer, unassigned) [Example 3u167], the figure is 0.8 nM; as for `Cc1cc(C(=O)N2CCC(CN3CCN(Cc4cc5c(cc4F)n(C4CCC(=O)NC4=O)c(=O)n5C4CC4)C[C@@H]3C)CC2)cc(F)c1C1=CCN([C@@H](C)c2cc3c(-n4ccc5c(c4=O)CCN5)ccnc3n2C)CC1` (stereo partly drawn) [Example 3u131, 3-(3-cyclopropyl-6-fluoro-5-(((S)-4-((1-(3-fluoro-5-methyl-4-(1-((S)-1-(1-methyl-4-(4-oxo-1,2,3,4-tetrahydro-5H-pyrrolo[3,2-c]pyridin-5-yl)-1H-pyrrolo[2,3-b]pyridin-2-yl)ethyl)-1,2,3,6-tetrahydropyridin-4-yl)benzoyl)piperidin-4-yl)methyl)-3-methylpiperazin-1-yl)methyl)-2-oxo-2,3-dihydro-1H-benzo[d]imidazol-1-yl)piperidine-2,6-dione], 0.8 nM; as for `CNc1ccn(-c2ccnc3c2cc(CN2CC=C(c4c(F)cc(C(=O)N5CCC(CN6CCN(Cc7ccc8c(c7)n(C)c(=O)n8[C@@H]7CCC(=O)NC7=O)C[C@@H]6C)CC5)cc4F)CC2)n3C)c(=O)c1` (single isomer, unassigned) [Example 3u3], 1.8 nM.
Consider `CNc1ccn(-c2ccnc3c2cc([C@H](C)N2CC=C(c4c(C)cc(C(=O)N5CCn6nc(CN7CCN(c8ccc9c(c8)n(C)c(=O)n9C8CCC(=O)NC8=O)CC7)cc6C5)cc4F)CC2)n3C)c(=O)c1` (stereo partly drawn) [Example 3u277, 3-(5-(4-((5-(3-fluoro-5-methyl-4-(1-((S)-1-(1-methyl-4-(4-(methylamino)-2-oxopyridin-1 (2H)-yl)-1H-pyrrolo[2,3-b]pyridin-2-yl)ethyl)-1,2,3,6-tetrahydropyridin-4-yl)benzoyl)-4,5,6,7-tetrahydropyrazolo[1,5-a]pyrazin-2-yl)methyl)piperazin-1-yl)-3-methyl-2-oxo-2,3-dihydro-1H-benzo[d]imidazol-1-yl)piperidine-2,6-dione], for which the DC50 amounted to 0.4 nM.
The same measure, in the same setting: as for `CNc1ccn(-c2ccnc3c2cc([C@H](C)N2CCC(c4ccc(C(=O)N5CCC(CN6CCN(Cc7ccc8c(c7)C7(CC7)C(=O)N8[C@@H]7CCC(=O)NC7=O)C[C@@H]6C)CC5)cc4)CC2)n3C)c(=O)c1` (single isomer, unassigned) [Example 3u7], the figure is 0.6 nM; as for `CNc1ccn(-c2ccnc3c2cc(CN2CCC(c4c(F)cc(C(=O)N5CCC(CN6CCN(Cc7ccc8c(c7)C7(CC7)C(=O)N8C7CCC(=O)NC7=O)C[C@@H]6C)CC5)cc4F)CC2)n3C)c(=O)c1F` (stereo partly drawn) [Example 3u84, 3-(5′-(((S)-4-((1-(3,5-difluoro-4-(1-((4-(3-fluoro-4-(methylamino)-2-oxopyridin-1 (2H)-yl)-1-methyl-1H-pyrrolo[2,3-b]pyridin-2-yl)methyl)piperidin-4-yl)benzoyl)piperidin-4-yl)methyl)-3-methylpiperazin-1-yl)methyl)-2′-oxospiro[cyclopropane-1,3′-indolin]-1′-yl)piperidine-2,6-dione], 26 nM; as for `Cc1cc(C(=O)N2CCC(CN3CCN(Cc4ccc5c(c4)n(C)c(=O)n5[C@@H]4CCC(=O)NC4=O)C[C@@H]3C)CC2)cc(F)c1C1=CCN([C@@H](C)c2cc3c(-n4ccc5c(c4=O)CCN5)ccnc3n2C)CC1` (single isomer, unassigned) [Example 3u139], 0.2 nM.
`CNc1ccn(-c2ccnc3c2cc([C@H](C)N2CCC(c4c(F)cc(C(=O)N5CCC(CN6CCN(Cc7ccc8c(c7)C(C)(C)C(=O)N8[C@H]7CCC(=O)NC7=O)C[C@@H]6C)CC5)cc4F)CC2)n3C)c(=O)c1` (single isomer, unassigned) [Example 3u81]: the DC50 stood at 0.8 nM.
Still for that read-out and setting: the same measure for `CNc1ccn(-c2ccnc3c2cc([C@H](C)N2CC=C(c4c(C)cc(C(=O)N5CCn6c(nnc6C6CCN(Cc7ccc8c(c7)n(C)c(=O)n8C7CCC(=O)NC7=O)CC6)C5)cc4F)CC2)n3C)c(=O)c1` (stereo partly drawn) [Example 3u275, 3-(5-((4-(7-(3-fluoro-5-methyl-4-(1-((S)-1-(1-methyl-4-(4-(methylamino)-2-oxopyridin-1 (2H)-yl)-1H-pyrrolo[2,3-b]pyridin-2-yl)ethyl)-1,2,3,6-tetrahydropyridin-4-yl)benzoyl)-5,6,7,8-tetrahydro-[1,2,4]triazolo[4,3-a]pyrazin-3-yl)piperidin-1-yl)methyl)-3-methyl-2-oxo-2,3-dihydro-1H-benzo[d]imidazol-1-yl)piperidine-2,6-dione]: 57.4 nM.
The same measure, in the same setting: the same measure for `CNc1ccn(-c2ccnc3c2cc([C@H](C)N2CC=C(c4c(C)cc(C(=O)N5CCC(CN6CCN(Cc7ccc8c(c7)n(C7CC7)c(=O)n8[C@@H]7CCC(=O)NC7=O)C[C@@H]6C)CC5)cc4F)CC2)n3C)c(=O)c1` (single isomer, unassigned) [Example 3u113]: 0.6 nM.
In the case of `CNc1cc(=O)n(-c2ccnc3c2cc([C@H](C)N2CC=C(c4c(C)cc(C(=O)N5CCC(CC6(O)CCN(c7ccc8c(c7)C7(CC7)C(=O)N8C7CCC(=O)NC7=O)CC6)CC5)cc4F)CC2)n3C)cc1F` (stereo partly drawn) [Example 3u70, 3-(5′-(4-((1-(3-fluoro-4-(1-((S)-1-(4-(5-fluoro-4-(methylamino)-2-oxopyridin-1 (2H)-yl)-1-methyl-1H-pyrrolo[2,3-b]pyridin-2-yl)ethyl)-1,2,3,6-tetrahydropyridin-4-yl)-5-methylbenzoyl)-piperidin-4-yl)methyl)-4-hydroxypiperidin-1-yl)-2′-oxospiro[cyclopropane-1,3′-indolin]-1′-yl)-piperidine-2,6-dione], the DC50 was 5.8 nM.

For the origin of these results see patent US20250320206A1, “STAT6 DEGRADERS” (Gilead Sciences, Inc., priority 2024, published 2025).
